These results are taken from patent publication US8815857B2 (Boehringer Ingelheim International GmbH, priority 2011, dated 2014).

≈ marks a conversion by molar mass, not a printed value. Where only a bound is given, the exact number is not on record here.

As usually defined, the EC50 is the concentration needed to bring the measured effect to its halfway point. As a reminder, the solubility is how much of the substance goes into solution per volume. A high value points to much dissolved substance.

For data set [1], the target named is T1, Recombinant human soluble guanylate cyclase (sGC), alpha 1 / beta 1 subunits, heme-free (Homo sapiens, UniProt Q02108+Q02153).
T1 construct: histidine tag (C); made in house; host or cells: Sf9 insect cells (baculovirus coinfection)
T1 sequence (Q02108 1-690 partner): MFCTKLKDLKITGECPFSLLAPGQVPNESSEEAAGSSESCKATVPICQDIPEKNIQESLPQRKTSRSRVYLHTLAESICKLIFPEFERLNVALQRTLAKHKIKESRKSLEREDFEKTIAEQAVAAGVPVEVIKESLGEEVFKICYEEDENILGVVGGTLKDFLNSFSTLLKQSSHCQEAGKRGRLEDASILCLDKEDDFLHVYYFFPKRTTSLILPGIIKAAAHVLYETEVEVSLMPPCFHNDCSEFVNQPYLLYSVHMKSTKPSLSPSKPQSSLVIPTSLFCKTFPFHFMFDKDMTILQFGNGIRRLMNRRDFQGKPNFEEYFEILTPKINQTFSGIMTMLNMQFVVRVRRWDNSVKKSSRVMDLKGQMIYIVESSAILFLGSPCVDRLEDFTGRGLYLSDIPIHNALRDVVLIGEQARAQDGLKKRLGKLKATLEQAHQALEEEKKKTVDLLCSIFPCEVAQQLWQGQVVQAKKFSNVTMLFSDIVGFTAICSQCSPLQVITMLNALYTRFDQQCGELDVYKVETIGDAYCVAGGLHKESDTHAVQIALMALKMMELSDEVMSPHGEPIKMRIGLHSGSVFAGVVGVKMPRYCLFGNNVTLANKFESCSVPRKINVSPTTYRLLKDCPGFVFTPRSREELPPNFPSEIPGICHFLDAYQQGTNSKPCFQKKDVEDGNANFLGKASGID
T1 sequence (Q02153 1-619): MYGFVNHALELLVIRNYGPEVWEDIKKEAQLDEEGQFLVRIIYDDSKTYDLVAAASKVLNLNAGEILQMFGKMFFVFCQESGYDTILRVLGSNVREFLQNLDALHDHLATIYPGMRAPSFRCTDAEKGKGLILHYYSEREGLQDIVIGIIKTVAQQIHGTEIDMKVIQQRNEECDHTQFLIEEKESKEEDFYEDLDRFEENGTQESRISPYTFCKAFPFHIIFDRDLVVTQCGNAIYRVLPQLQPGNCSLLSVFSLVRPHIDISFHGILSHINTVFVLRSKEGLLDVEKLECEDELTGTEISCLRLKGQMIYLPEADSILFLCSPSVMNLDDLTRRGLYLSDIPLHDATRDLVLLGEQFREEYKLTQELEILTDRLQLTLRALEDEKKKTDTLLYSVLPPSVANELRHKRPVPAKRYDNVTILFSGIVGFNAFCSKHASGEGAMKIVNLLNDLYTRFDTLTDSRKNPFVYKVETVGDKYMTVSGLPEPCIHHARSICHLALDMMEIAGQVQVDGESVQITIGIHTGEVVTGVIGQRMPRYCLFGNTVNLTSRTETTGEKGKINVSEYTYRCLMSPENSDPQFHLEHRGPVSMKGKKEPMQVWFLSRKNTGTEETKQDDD
Nature of the data set: Molecular assay: cGMP formation by heme-free recombinant sGC (CisBio cGMP detection kit). The data set is classed as biochemical. To be noted: 300 pM heme-free sGC, 37° C., 60 min, cGMP readout; read-out: EC50 nM, Activity of Compounds in Molecular Assay. The gist of the method:
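cGMP generated over 60 min at 37° C (pH 6.8 MOPS buffer, 50 nM GTP, 1.25 mM IBMX, 1% DMSO) by 300 pM heme-free sGC, expressed in Sf9 and heme-stripped with 0.5% Tween 20. HTRF ratios converted to nM cGMP; EC50 fitted from log concentration.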

Data set [2] can be described thus: Assessment of solubility: HT solubility in pION buffer, UV spectrophotometry. The following applies: 16-19 h incubation, 1.0% DMSO; for solubility: pION system solution buffer, kinetic from dmso stock.
Experimental: Solubility is measured by the following method.
DMSO stock samples at 10 mM concentration are prepared. […] The samples are pierced and 100 ul of thawed samples are transferred into the PCR plate for analysis. Each sample is run in duplicate at each pH (pH 4.5 and 7.4). Up to 95 samples can be run in replicate at 2 pH's+1 DMSO (blank).
Preparation of pH 4.5 and 7.4 Buffers:
• pH 4.5 buffer:—To 12.5 of system solution (pION)qs to 500 mL of distilled water (pH 2.85-2.90); adjust the pH to pH 4.5 with 0.5 N NaOH. • pH 7.4 buffer: To 12.5 of system solution (pION)qs to 500 mL of distilled water (pH 2.85-2.90); adjust the pH to pH 7.4 with 0.5N NaOH. […] Procedure: Preparation of UV Blank Plate:
75 ul of buffer (pH 7.4 or pH 4.5) is added to UV plate followed by addition of 70 ul of N-propanol. The solution is mixed and the blank spectrum is read using spectrophotometer.
Preparation of Reference UV Plate:
10 ul of each stock sample (including DMSO control) is added to 190 ul of N-propanol to prepare the reference stock plate. Reference stock samples are mixed and 5 ul of each stock sample is added to UV blank plate after it is read spectrophotometrically. The reference stock sample is mixed with blank solution in UV plate and the reference spectrum is read using UV spectrophotometer.
Preparation of Sample for Incubation:
Solubility at pH 7.4:6 ul of each stock sample (including DMSO control) is added to the storage plate containing 600 ul of pH 7.4 buffer, mixed and incubated for 16-19 h. The plate is sealed well during the incubation process. The DMSO content in the sample is 1.0%. The concentration in deep well plates is 100 uM
6 ul of each stock sample (including DMSO control) is added to the deep well plate containing 600 ul of pH 4.5 buffer, mixed and incubated for 16-19 h. The plate is sealed well during the incubation process. The DMSO content in the sample is 1.0%. The concentration in deep well plates is 100 uM
Preparation of Sample UV Plate:
At the end of the incubation period, 100 uL of sample from the storage plate is vacuum filtered using a filter plate. This step wets the filters and the filtrate is discarded. Another 200 ul of the sample from the deep well plate is vacuum filtered using the same filter block but a clean filter plate. 75 ul of the filtrate from the filter plate is transferred to a UV sample plate. 75 ul of N-propanol is added to this UV plate. The solution is mixed and the spectrum is read using the UV spectrophotometer.
The spectra collected for blank, reference and sample from 250-498 nm is analyzed using pION software. If the sample precipitates out, the solubility is reported as XX μg/ml.
The mark [3] stands for this setting: pH 4.5, pH 4.5, aqueous buffer, Solubility (pH 4.5), pH 4.5 buffer.
The mark [4] stands for this setting: pH 7.4, pH 7.4, aqueous buffer, Solubility (pH 7.4), pH 7.4 buffer.

For the molecule `Cc1ccc(OCc2ccc(CN3CCS(=O)(=O)CC3)cc2C#N)c(-c2csc(N3CCC(C(=O)O)CC3)n2)c1` [Compound 119], the EC50 in data set [1] is 39 nM. In addition, the solubility was 1.6 µg/mL (≈ 2.76 µM) in data set [2] (setting [3]) and above 69 µg/mL in data set [2] (setting [4]).
For `Cc1cc(CN2CCOCC2)ccc1COc1ccc(C#N)cc1-c1csc(N2CCC(C(=O)O)C(C)C2)n1` (stereo not drawn) [Compound 72], the EC50 in data set [1] came out at 4.8 nM. In addition, the values for the solubility in data set [2] (setting [3]) and in data set [2] (setting [4]) were 0.5 µg/mL (≈ 0.915 µM) and above 54 µg/mL, respectively.
Taken in the same sequence, the figures for `Cc1ccc(OCc2ccc(C(=O)N3CCCCC3)cc2C)c(-c2csc(N3CC4CCC(C3)C4C(=O)O)n2)c1` (stereo not drawn) [Compound 89, 3-(4-{5-methyl-2-[2-methyl-4-(piperidine-1-carbonyl)-benzyloxy]-phenyl}-thiazol-2-yl)-3-aza-bicyclo[3.2.1]octane-8-carboxylic acid] were 2.5 nM, 0.35 µg/mL (≈ 0.625 µM) and 32 µg/mL (≈ 57.2 µM).
Taken in the same sequence, the figures for `Cc1cc(CN2CCS(=O)(=O)CC2)ccc1COc1ccccc1-c1csc(N2CCC(C(=O)O)C(C)C2)n1` (stereo not drawn) [Compound 107] were 71 nM, 0.65 µg/mL (≈ 1.14 µM) and above 56 µg/mL.
For `Cc1cccc(-c2csc(N3CCC(C(=O)O)CC3)n2)c1OCc1ccc(C(=O)N2CCCC2)cc1C#N` [Compound 31] the same measures were 250 nM, 25 µg/mL (≈ 47.1 µM) and above 53 µg/mL.
`Cc1ccc(OCc2ccc(CN3CCN(S(C)(=O)=O)CC3)cc2C)c(-c2csc(N3CCC(C(=O)O)CC3)n2)c1` [Compound 196]: in data set [1], the concentration giving a half-maximal response (EC50) is 110 nM. Further, the values for the solubility in data set [2] (setting [3]) and in data set [2] (setting [4]) were 16 µg/mL (≈ 26.7 µM) and 37 µg/mL (≈ 61.8 µM), respectively.
Taken in the same sequence, the figures for `Cc1cc(CN2CCOCC2)ccc1COc1ccc(Cl)cc1-c1csc(N2CCC(C(=O)O)C(C)C2)n1` (stereo not drawn) [Compound 83] were 210 nM, 11 µg/mL (≈ 19.8 µM) and 25 µg/mL (≈ 45 µM).
Taken in the same sequence, the figures for `Cc1cc(C(=O)N2CCCCC2)ccc1COc1ccc(C#N)cc1-c1csc(N2CCC(C(=O)O)CC2C)n1` (stereo not drawn) [Compound 85] were 1100 nM, 0.35 µg/mL (≈ 0.626 µM) and above 55 µg/mL.
`N#Cc1cc(CN2CCS(=O)(=O)CC2)ccc1COc1c(Cl)cccc1-c1csc(N2CCC(C(=O)O)CC2)n1` [Compound 140]: the EC50 in data set [1] amounted to 79 nM. The solubility was 1.8 µg/mL (≈ 2.99 µM) in data set [2] (setting [3]) and above 60 µg/mL in data set [2] (setting [4]).
For `Cc1ccc(OCc2ccc(CN3CCOCC3)cc2C)c(-c2csc(N3CC[C@@H](C(=O)O)[C@@H](C)C3)n2)c1` (single isomer, unassigned) [Compound 50] the same measures were 520 nM, 18 µg/mL (≈ 33.6 µM) and above 53 µg/mL.
Turning to `Cc1cc(C(=O)N2CCCCC2)ccc1COc1ccccc1-c1csc(N2CC3CCC(C2)C3C(=O)O)n1` (stereo not drawn) [Compound 67], in data set [1], the EC50 stood at 2.5 nM. In addition, the results for the solubility in data set [2] (setting [3]) and in data set [2] (setting [4]) were 0.2 µg/mL (≈ 0.366 µM) and above 54 µg/mL, respectively.
For `Cc1ccc(OCc2ccc(CN3CCN(S(=O)(=O)N(C)C)CC3)cc2C)c(-c2csc(N3CCC(C(=O)O)CC3)n2)c1` [Compound 200] the same measures were 80 nM, 8.5 µg/mL (≈ 13.5 µM) and 30 µg/mL (≈ 47.8 µM).
Turning to `Cc1cc(CN2CCS(=O)(=O)CC2)ccc1COc1ccccc1-c1csc(N2CC3CCC(C2)C3C(=O)O)n1` (stereo not drawn) [Compound 121], the EC50 in data set [1] turned out to be 280 nM. The solubility is 3.3 µg/mL (≈ 5.67 µM) in data set [2] (setting [3]) and above 58 µg/mL in data set [2] (setting [4]).
For the molecule `Cc1cc(CN2CCOCC2)ccc1COc1ccccc1-c1csc(N2CCC(C(=O)O)C(C)C2)n1` (stereo not drawn) [Compound 24], the EC50 in data set [1] turned out to be 510 nM. In addition, the solubility in data set [2] (setting [3]) and in data set [2] (setting [4]) was above 59 µg/mL throughout.
In the case of `Cc1cc(C(=O)N2CCCCC2)ccc1COc1ccccc1-c1csc(N2CCC(C(=O)O)C(C)C2)n1` (stereo not drawn) [Compound 42], the EC50 in data set [1] was 51 nM. Also, the solubility in data set [2] (setting [3]) was 0.45 µg/mL (≈ 0.843 µM); in data set [2] (setting [4]), above 53 µg/mL.
Taken in the same sequence, the figures for `Cc1cc(CN2CCOCC2)ccc1COc1ccccc1-c1csc(N2CC3CCC(C2)C3C(=O)O)n1` (stereo not drawn) [Compound 43] were 63 nM, above 60 µg/mL and above 60 µg/mL.
Taken in the same sequence, the figures for `Cc1cc(CN2CCS(=O)(=O)CC2)ccc1COc1ccc(C#N)cc1-c1csc(N2CCC(C(=O)O)C(C(F)(F)F)C2)n1` (stereo not drawn) [Compound 156] were 3100 nM, 0.45 µg/mL (≈ 0.694 µM) and above 64 µg/mL.
`Cc1cc(C(=O)N2CCCCC2)ccc1COc1ccc(Cl)cc1-c1csc(N2CCC(C(=O)O)C(C)C2)n1` (stereo not drawn) [Compound 103]: the EC50 in data set [1] turned out to be 17 nM. The values for the solubility in data set [2] (setting [3]) and in data set [2] (setting [4]) were 0.3 µg/mL (≈ 0.528 µM) and 35 µg/mL (≈ 61.6 µM), respectively.
For `Cc1ccc(OCc2ccc(CN3CCOCC3)cc2C)c(-c2csc(N3CCC(C(=O)O)CC3C(F)(F)F)n2)c1` (stereo not drawn) [Compound 132] the same measures were 160 nM, 15 µg/mL (≈ 25.4 µM) and above 58 µg/mL.
Taken in the same sequence, the figures for `Cc1ccc(OCc2ccc(CN3CCN(C(=O)N(C)C)CC3)cc2C)c(-c2csc(N3CCC(C(=O)O)CC3)n2)c1` [Compound 199] were 140 nM, above 59 µg/mL and above 59 µg/mL.
Taken in the same sequence, the figures for `Cc1ccc(OCc2ccc(CN3CCOCC3)cc2C)c(-c2csc(C3=CCC(C(=O)O)CC3)n2)c1` (stereo not drawn) [Compound 10] were 4900 nM, 14 µg/mL (≈ 27 µM) and 22 µg/mL (≈ 42.4 µM).
Regarding `Cc1ccc(OCc2ccc(C(=O)N3CCCCC3)cc2C)c(-c2csc(N3CCC(C(=O)O)CC3)n2)c1` [Compound 39], the EC50 in data set [1] was 27 nM. For the same molecule, the solubility in data set [2] (setting [3]) is 0.95 µg/mL (≈ 1.78 µM); in data set [2] (setting [4]), above 53 µg/mL.
Regarding `Cc1cc(CN2CCOCC2)ccc1COc1ccc(F)cc1-c1csc(N2CC3CCC(C2)C3C(=O)O)n1` (stereo not drawn) [Compound 77], the EC50 in data set [1] was 4400 nM. The results for the solubility in data set [2] (setting [3]) and in data set [2] (setting [4]) were 22 µg/mL (≈ 39.9 µM) and 16 µg/mL (≈ 29 µM), respectively.
`Cc1cc(C(=O)N2CCCCC2)ccc1COc1c(C#N)cccc1-c1csc(N2CCC(C(=O)O)CC2)n1` [Compound 66]: the EC50 in data set [1] came to 450 nM. Also, the solubility in data set [2] (setting [3]) was 1 µg/mL (≈ 1.84 µM); in data set [2] (setting [4]), above 54 µg/mL.
Taken in the same sequence, the figures for `Cc1ccc(OCc2ccc(CN3CCOCC3)cc2C)c(-c2csc(N3CC4CCC(C3)C4C(=O)O)n2)c1` (stereo not drawn) [Compound 74] were 27 nM, 40 µg/mL (≈ 73 µM) and 42 µg/mL (≈ 76.7 µM).
Taken in the same sequence, the figures for `Cc1cccc(-c2csc(N3CCC(C(=O)O)CC3)n2)c1OCc1ccc(CN2CCOCC2)cc1C#N` [Compound 36] were 140 nM, above 64 µg/mL and above 64 µg/mL.
Consider `Cc1cc(CN2CCS(=O)(=O)CC2)ccc1COc1ccc(Cl)cc1-c1csc(N2CCC(C(=O)O)CC2C)n1` (stereo not drawn) [Compound 143], for which the EC50 in data set [1] worked out at 38 nM. Besides, the solubility in data set [2] (setting [3]) came out at 0.2 µg/mL (≈ 0.331 µM); in data set [2] (setting [4]), 36 µg/mL (≈ 59.6 µM).
Regarding `Cc1cc(C(=O)N2CCCCC2)ccc1COc1ccc(C#N)cc1-c1csc(N2CC3C(C2)C3C(=O)O)n1` (stereo not drawn) [Compound 64], the EC50 in data set [1] came to 1800 nM. The “Solubility (pH 4.5)” value in data set [2] (pH 4.5 buffer) is on record as 0.1 μg/mL. In data set [2] (setting [4]), this molecule gave a solubility above 54 µg/mL.
For `Cc1ccc(OCc2ccc(CNCC(C)(C)O)cc2C)c(-c2csc(N3CCC(C(=O)O)CC3)n2)c1` [Compound 25], the EC50 in data set [1] was found to be 1300 nM. For the same molecule, the solubility in data set [2] (setting [3]) and in data set [2] (setting [4]) was above 63 µg/mL each time.
With `Cc1ccc(OCc2ccc(CN3CCOCC3)cc2C)c(-c2csc(N[C@H]3CC[C@@H](C(=O)O)CC3)n2)c1` [Compound 201], the EC50 in data set [1] turned out to be 960 nM. For the same molecule, the solubility in data set [2] (setting [3]) was 36 µg/mL (≈ 67.2 µM); in data set [2] (setting [4]), above 53 µg/mL.
